Experimental data published in PubChem BioAssay (NCI).
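Method: 48-hour compound exposure of cells in 96-well plates, five concentrations, linear interpolation of endpoints. Here, GI50 denotes the concentration required for 50% inhibition of growth. TGI: total growth inhibition.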

Tests used:
Assay in all cases: NCI tumour cell line growth inhibition, 48 h
MDA-N = tested on: MDA-N
HOP-18 NSCLC = tested on: HOP-18 NSCLC
DMS 114 small cell lung = tested on: DMS 114 small cell lung
SNB-78 CNS = tested on: SNB-78 CNS
DMS 273 small cell lung = tested on: DMS 273 small cell lung
KM20L2 colon = tested on: KM20L2 colon
XF 498 CNS = tested on: XF 498 CNS
LXFL 529 NSCLC = tested on: LXFL 529 NSCLC
RXF-631 renal = tested on: RXF-631 renal

Work on COc1cc2c(cc1-c1coc3cc(OCC=C(C)C)ccc3c1=O)OCO2 yielded a TGI (MDA-N) of 28.5 µM.
O=C(NCC(=O)N1CCOC1=O)OCc1ccccc1 was tested, and the TGI (HOP-18 NSCLC) was greater than 100 µM, the TGI (DMS 114 small cell lung) was greater than 100 µM and the TGI (SNB-78 CNS) was greater than 100 µM. The TGI (DMS 273 small cell lung) was greater than 100 µM, the TGI (KM20L2 colon) was greater than 100 µM and the TGI (XF 498 CNS) was greater than 100 µM.
For Cc1cc(C)nc(NS(=O)(=O)c2ccc(NC(=O)c3cccn4c(=O)c5ccccc5nc34)cc2)n1, the TGI (SNB-78 CNS) was greater than 100 µM, the TGI (DMS 273 small cell lung) was greater than 100 µM and the TGI (KM20L2 colon) was greater than 100 µM. The TGI (XF 498 CNS) was greater than 100 µM and the TGI (LXFL 529 NSCLC) was greater than 100 µM.
O=[N+]([O-])c1ccc2c(Nc3ccccc3-c3ccccc3Nc3c4ccccc4nc4cc([N+](=O)[O-])ccc34)c3ccccc3nc2c1 gave a TGI (HOP-18 NSCLC) greater than 100 µM, a TGI (DMS 114 small cell lung) of 27.3 µM and a TGI (RXF-631 renal) greater than 82.9 µM. It also gave a TGI (MDA-N) of 3.29 µM, a TGI (SNB-78 CNS) greater than 100 µM and a TGI (DMS 273 small cell lung) greater than 82.9 µM. It also gave a TGI (KM20L2 colon) greater than 65 µM, a TGI (XF 498 CNS) of 4.98 µM and a TGI (LXFL 529 NSCLC) greater than 35.1 µM.
Work on CCCCCCCCCCCCCP(=O)(NCC(N)=O)OCC (stereo unspecified) yielded a TGI (HOP-18 NSCLC) of 14.8 µM, a TGI (DMS 114 small cell lung) of 33.4 µM and a TGI (RXF-631 renal) of 35.5 µM. It also gave a TGI (SNB-78 CNS) of 41.2 µM, a TGI (KM20L2 colon) of 32.7 µM and a TGI (XF 498 CNS) of 34.9 µM. It also gave a TGI (LXFL 529 NSCLC) of 30.8 µM.
COCCOCOC(C)(C)[C@H](CCOC(C)=O)O[Si](c1ccccc1)(c1ccccc1)C(C)(C)C gave a TGI (HOP-18 NSCLC) greater than 100 µM, a TGI (DMS 114 small cell lung) of 55.4 µM and a TGI (RXF-631 renal) of 43.1 µM. It also gave a TGI (SNB-78 CNS) of 97.4 µM, a TGI (DMS 273 small cell lung) of 26.3 µM and a TGI (KM20L2 colon) greater than 100 µM. It also gave a TGI (LXFL 529 NSCLC) greater than 100 µM.
Compound CC1(C)CC2=C(Sc3ccccc3N2)C(=O)C1C(=O)C(=O)Nc1cc(Cl)ccc1Cl (stereo unspecified) has a TGI (MDA-N) greater than 100 µM.
With COc1cc(/C=C\c2ccncc2)cc(OC)c1OC the TGI (HOP-18 NSCLC) was greater than 100 µM, the TGI (DMS 114 small cell lung) was greater than 100 µM and the TGI (RXF-631 renal) was greater than 100 µM. It also gave a TGI (SNB-78 CNS) greater than 100 µM, a TGI (DMS 273 small cell lung) greater than 100 µM and a TGI (KM20L2 colon) greater than 100 µM. For the same compound, the TGI (XF 498 CNS) was greater than 100 µM and the TGI (LXFL 529 NSCLC) was greater than 100 µM.
For CCC[CH2][Sn]([CH2]CCC)([O]C(=O)/C=C/c1ccccc1F)[O]C(=O)/C=C/c1ccccc1F, the GI50 (HOP-18 NSCLC) was 1.62 µM, the TGI (HOP-18 NSCLC) was 2.98 µM and the GI50 (DMS 114 small cell lung) was 0.445 µM. The TGI (DMS 114 small cell lung) was 1.46 µM, the GI50 (RXF-631 renal) was 0.253 µM and the TGI (RXF-631 renal) was 0.972 µM. It also gave a GI50 (SNB-78 CNS) of 0.452 µM, a TGI (SNB-78 CNS) of 1.7 µM and a GI50 (DMS 273 small cell lung) of 1.16 µM. The TGI (DMS 273 small cell lung) was 2.93 µM, the GI50 (KM20L2 colon) was 1.34 µM and the TGI (KM20L2 colon) was 2.64 µM. The GI50 (XF 498 CNS) was 0.258 µM, the TGI (XF 498 CNS) was 0.892 µM and the GI50 (LXFL 529 NSCLC) was 0.131 µM. It also gave a TGI (LXFL 529 NSCLC) of 0.304 µM.
O=C1c2ccccc2C(=O)N1C1(C(=O)NC2(C(=O)O)CCCC2)CCCC1 showed a TGI (MDA-N) greater than 100 µM.
COC(=O)/C(C#N)=C1\CCc2ccccc21 showed a TGI (DMS 114 small cell lung) greater than 100 µM, a TGI (DMS 273 small cell lung) greater than 100 µM and a TGI (KM20L2 colon) greater than 100 µM. It also gave a TGI (XF 498 CNS) greater than 100 µM and a TGI (LXFL 529 NSCLC) greater than 100 µM.
Compound O=C(O)COc1ccc(C(=O)/C(SS/C(C(=O)c2ccc(OCC(=O)O)c(Cl)c2Cl)=C2\C=C(c3ccc(Br)cc3)SS2)=C2/C=C(c3ccc(Br)cc3)SS2)c(Cl)c1Cl has a TGI (HOP-18 NSCLC) of 39.9 µM, a TGI (DMS 114 small cell lung) of 6.76 µM and a TGI (SNB-78 CNS) of 36.5 µM. For the same compound, the TGI (DMS 273 small cell lung) was greater than 100 µM, the TGI (KM20L2 colon) was greater than 100 µM and the TGI (XF 498 CNS) was 9.89 µM. It also gave a TGI (LXFL 529 NSCLC) of 8.98 µM.
Work on O=C(CCc1nc(=S)[nH][nH]1)Nc1cccc(C(F)(F)F)c1 yielded a TGI (HOP-18 NSCLC) greater than 100 µM, a TGI (DMS 114 small cell lung) greater than 100 µM and a TGI (SNB-78 CNS) greater than 100 µM. For the same compound, the TGI (DMS 273 small cell lung) was greater than 100 µM, the TGI (KM20L2 colon) was greater than 100 µM and the TGI (XF 498 CNS) was greater than 100 µM. For the same compound, the TGI (LXFL 529 NSCLC) was greater than 100 µM.
In the case of O=C(O)[C@@H](NS(=O)(=O)c1ccc2ccccc2c1)c1ccccc1, the TGI (HOP-18 NSCLC) is reported as greater than 100 µM, the TGI (RXF-631 renal) is reported as greater than 100 µM and the TGI (DMS 273 small cell lung) is reported as greater than 100 µM. The TGI (KM20L2 colon) was greater than 100 µM, the TGI (XF 498 CNS) was greater than 100 µM and the TGI (LXFL 529 NSCLC) was greater than 100 µM.
With COc1cc2c(c(OC)c1OC)-c1c(cc3c(c1OC)OCO3)CC(C)C(C)(O)C2OC(=O)c1ccccc1 (stereo unspecified) the TGI (MDA-N) was greater than 100 µM.
Compound CCC1C(=O)OCc2c1cc1n(c2=O)C(CC)c2c-1nc1ccccc1c2Cl (stereo unspecified) has a TGI (HOP-18 NSCLC) of 98.2 µM, a TGI (SNB-78 CNS) greater than 100 µM and a TGI (DMS 273 small cell lung) greater than 100 µM. For the same compound, the TGI (KM20L2 colon) was greater than 100 µM, the TGI (XF 498 CNS) was 66.5 µM and the TGI (LXFL 529 NSCLC) was greater than 100 µM.
Nc1ncnc2c1nnn2C1C=C(CO)C(O)C1O (stereo unspecified) was tested, and the TGI (HOP-18 NSCLC) was greater than 100 µM, the TGI (DMS 114 small cell lung) was greater than 86.2 µM and the TGI (SNB-78 CNS) was greater than 100 µM. It also gave a TGI (DMS 273 small cell lung) greater than 100 µM, a TGI (KM20L2 colon) greater than 100 µM and a TGI (XF 498 CNS) greater than 100 µM. The TGI (LXFL 529 NSCLC) was greater than 100 µM.
In the case of CC1=C(Cl)C[C@@H](/C(C)=C\Cl)O[C@@]1(O)C(Br)Br, the TGI (MDA-N) is reported as 41.8 µM.
